Test results reported in patent US20250129430A1, “HIGH ATP-AFFINITY PROTEIN AS THERAPEUTIC TARGET FOR INTRACTABLE CANCER MOLECULAR SUBTYPES AND INHIBITOR THEREOF” (VeraVerse Co., Ltd., priority 2021, published 2025).

Experiments:
Experiment in all cases: Cell viability drug screen, 12-point dose-response AUC
Assay type in all cases: cell-based, human
YCC3 = YCC3 cells; 72 hours
How it was run: (§1)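 Luminescent viability readings, taken 15 min after reagent addition at room temperature, were normalized to the 0.5% DMSO control to build 12-point dose-response curves. Trapezoidal integration gave the AUC. Cells had been plated at 5×10^3 per well and then exposed to half-log dilutions for 72 h.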

NCC20 = NCC20 cells; 72 hours
How it was run: as §1

OCUM1 = OCUM1 cells; 72 hours
How it was run: as §1

SNU16 = SNU16 cells; 72 hours
How it was run: as §1

SNU668 = SNU668 cells (SEM subtype); 72 hours
How it was run: as §1

MKN1 = MKN1 cells; 72 hours
How it was run: as §1

SNU484 = SNU484 cells (SEM subtype); 72 hours
How it was run: as §1

NCC19 = NCC19 cells; 72 hours
How it was run: as §1

SNU1 = SNU1 cells; 72 hours
How it was run: as §1

AGS = AGS cells (non-SEM subtype); 72 hours
How it was run: (§2)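 Each cell line receives a twelve-point half-log titration of drug beginning 24 h after plating 5×10^3 cells per well. Following 72 h culture at 37 °C, luminescent signal is recorded and expressed versus vehicle. AUC is derived by the trapezoidal method.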

SNU1967 = SNU1967 cells; 72 hours
How it was run: as §1

YCC2 = YCC2 cells; 72 hours
How it was run: as §1

Hs746T = Hs746T cells (SEM subtype); 72 hours
How it was run: as §1

MKN74 = MKN74 cells; 72 hours
How it was run: as §2

SNU601 = SNU601 cells; 72 hours
How it was run: as §1

SNU719 = SNU719 cells; 72 hours
How it was run: as §2

YCC11 = YCC11 cells (SEM subtype); 72 hours
How it was run: as §1

SNU620 = SNU620 cells; 72 hours
How it was run: as §1

NCC24 = NCC24 cells; 72 hours
How it was run: as §1

NCC59 = NCC59 cells; 72 hours
How it was run: as §1

SNU638 = SNU638 cells; 72 hours
How it was run: as §1

MKN28 = MKN28 cells; 72 hours
How it was run: as §1

SNU1750 = SNU1750 cells (SEM subtype); 72 hours
How it was run: as §1

KATO3 = KATO3 cells; 72 hours
How it was run: as §1

SK4 = SK4 cells (SEM subtype); 72 hours
How it was run: as §1

MKN45 = MKN45 cells (non-SEM subtype); 72 hours
How it was run: as §2

SNU216 = SNU216 cells (non-SEM subtype); 72 hours
How it was run: as §2

NCI_N87 = NCI_N87 cells; 72 hours
How it was run: as §1

FU97 = system: FU97; parameters: Average Area Under the Viability Curve (AUC), AUC norm value: scale not given here; settings: FU97 cells; 72 hours
How it was run: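 Trapezoidal AUC of a 12-point, DMSO-normalized dose-response curve. Luminescent viability was measured after 72 h of exposure at 37° C to half-log serial dilutions (0.5% DMSO control), dosed 24 h after plating FU97 cells at 5×10^3 per well.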

Compound	Average Area Under the Viability Curve (AUC), AUC norm value (YCC3)	Average Area Under the Viability Curve (AUC), AUC norm value (NCC20)	Average Area Under the Viability Curve (AUC), AUC norm value (OCUM1)	Average Area Under the Viability Curve (AUC), AUC norm value (SNU16)	Average Area Under the Viability Curve (AUC), AUC norm value (SNU668)	Average Area Under the Viability Curve (AUC), AUC norm value (MKN1)	Average Area Under the Viability Curve (AUC), AUC norm value (SNU484)	Average Area Under the Viability Curve (AUC), AUC norm value (NCC19)	Average Area Under the Viability Curve (AUC), AUC norm value (SNU1)	Average Area Under the Viability Curve (AUC), AUC norm value (AGS)	Average Area Under the Viability Curve (AUC), AUC norm value (SNU1967)	Average Area Under the Viability Curve (AUC), AUC norm value (YCC2)	Average Area Under the Viability Curve (AUC), AUC norm value (Hs746T)	Average Area Under the Viability Curve (AUC), AUC norm value (MKN74)	Average Area Under the Viability Curve (AUC), AUC norm value (SNU601)	Average Area Under the Viability Curve (AUC), AUC norm value (SNU719)	Average Area Under the Viability Curve (AUC), AUC norm value (YCC11)	Average Area Under the Viability Curve (AUC), AUC norm value (SNU620)	Average Area Under the Viability Curve (AUC), AUC norm value (NCC24)	Average Area Under the Viability Curve (AUC), AUC norm value (NCC59)	other results
CC(C)C[C@H](NC(=O)[C@H](CCc1ccccc1)NC(=O)CN1CCOCC1)C(=O)N[C@@H](Cc1ccccc1)C(=O)N[C@@H](CC(C)C)C(=O)[C@@]1(C)CO1 [Carfilzomib (PR-171), Carfilzomib]	1.747	−2.002	1.245	−1.3183	1.899	0.1771	−0.7602	1.562	0.1391	−0.131	−0.5586	0.8534	−1.399	−0.3162	1.489	0.5178	−0.7607	−0.4242	−0.8995	0.8592	Average Area Under the Viability Curve (AUC), AUC norm value (SNU638): 0.1464; Average Area Under the Viability Curve (AUC), AUC norm value (MKN28): −0.7065; Average Area Under the Viability Curve (AUC), AUC norm value (SNU1750): −0.9787; Average Area Under the Viability Curve (AUC), AUC norm value (KATO3): 0.1004; Average Area Under the Viability Curve (AUC), AUC norm value (SK4): −0.2415; Average Area Under the Viability Curve (AUC), AUC norm value (MKN45): 0.5553; Average Area Under the Viability Curve (AUC), AUC norm value (SNU216): 0; Average Area Under the Viability Curve (AUC), AUC norm value (NCI_N87): 0.5098; Average Area Under the Viability Curve (AUC), AUC norm value (FU97): −0.1687
C/C=C(\C)C(=O)N[C@@H](c1ccccc1)[C@@H](O)C(=O)O[C@H]1C[C@@]2(O)[C@@H](OC(=O)c3ccccc3)[C@@H]3[C@]4(OC(C)=O)CO[C@@H]4C[C@H](O)[C@@]3(C)C(=O)[C@H](OC(C)=O)C(=C1C)C2(C)C [Cephalomannine]	2.809	−0.5011	1.3887	−1.737	−0.1911	−1.486	−0.7051	1.7094	−2.056	−2.055	0.6525	0.3838	0.449	0.3528	0.2225	4.893	−1.013	−2.403	−0.7716	2.734	Average Area Under the Viability Curve (AUC), AUC norm value (SNU638): −0.03958; Average Area Under the Viability Curve (AUC), AUC norm value (MKN28): −1.697; Average Area Under the Viability Curve (AUC), AUC norm value (SNU1750): 1.009; Average Area Under the Viability Curve (AUC), AUC norm value (KATO3): 4.179; Average Area Under the Viability Curve (AUC), AUC norm value (SK4): −1.144; Average Area Under the Viability Curve (AUC), AUC norm value (MKN45): 0; Average Area Under the Viability Curve (AUC), AUC norm value (SNU216): 1.8612; Average Area Under the Viability Curve (AUC), AUC norm value (NCI_N87): −1.26; Average Area Under the Viability Curve (AUC), AUC norm value (FU97): 0.4107
CCCCCCCCCCCCCCCC[n+]1ccccc1 [Cetylpyridinium Chloride]	0.3901	−0.2318	−0.1441	−0.1534	−0.02952	0.9994	−0.7401	1.205	0.5171	−0.1044	−0.5001	0.1421	0.2943	−0.4176	2.328	1.718	−1.129	0.09525	0.06564	1.497	Average Area Under the Viability Curve (AUC), AUC norm value (SNU638): −0.3142; Average Area Under the Viability Curve (AUC), AUC norm value (MKN28): 0.4876; Average Area Under the Viability Curve (AUC), AUC norm value (SNU1750): −0.3613; Average Area Under the Viability Curve (AUC), AUC norm value (KATO3): 1.072; Average Area Under the Viability Curve (AUC), AUC norm value (SK4): −1.312; Average Area Under the Viability Curve (AUC), AUC norm value (MKN45): 0; Average Area Under the Viability Curve (AUC), AUC norm value (SNU216): −0.1483; Average Area Under the Viability Curve (AUC), AUC norm value (NCI_N87): 1.075; Average Area Under the Viability Curve (AUC), AUC norm value (FU97): −2.039
